The numbers were not newly measured in US7378109B2, “Pharmaceutical composition for improving palatability of drugs and process for preparation thereof” (Council of Scientific and Industrial Research, priority 2004, dated 2008), which cites them from elsewhere.

The conditions of the series: humans, oral.

`CO/N=C(\C(=O)N[C@@H]1C(=O)N2C(C(=O)OC(C)OC(C)=O)=C(COC(N)=O)CS[C@H]12)c1ccco1` (stereo partly shown) [Cefuroxime axetil]: the bioavailability is on record as 32-50%.
